Tests used:
Assay type in all cases: cell-based
Proteus mirabilis [1] = experiment: MIC in Tryptic Soy Broth, compounds alone and in mixtures; settings: Table 1, 28° C., 3 days
Description: (§1) Determinations of minimum inhibitory concentrations (MIC's) of the two compounds (pyrithione salts and/or polymyxin sulfate) in a nutrient broth (alone and in mixtures) were conducted to evaluate interactions. Stock solutions of pyrithione salts and/or polymyxin salts were diluted in Tryptic Soy Broth (Difco), and the dilutions were inoculated with an equal volume of bacterial culture (10^6 /ml) or fungal spore suspension (10^5 /ml) in Tryptic Soy Broth and incubated at 28° C. for 3-7 days.
(§2) The interactions of the antimicrobials were determined according to accepted procedures (M. C. Berenbaum [Tables 1 and 2] and P. F. Dougherty "Microdilution Transfer Plate Technique for Determining In Vitro Synergy of Antimicrobial Agents", ANTIMICROBIAL AGENTS AND CHEMOTHERAPY, Vol. 11, No. 2, p. 225-228 (Feb. 1977, American Society for Microbiology) [Tables 3 and 4]). The concentration of each agent in the combination that inhibits the organisms is expressed as a fraction of the concentration that causes the same effect when the same agent is tested alone (i.e., its fractional inhibitory concentration, FIC). If the sum of the FIC's is 1, the combination is additive in its antimicrobial effect; if the sum is <1, the combination is synergistic; and if the sum is >1, the combination is antagonistic.
(§3) ^a Compounds were serially diluted in Tryptic soy Broth (DIFCO),
(§4) ^b Each dilution contained 10^6 bacteria/ml of 10^5 fungi/ml.
(§5) ^a Stock solutions of ZP in dimethylsulfoxide and PB in sterile water

Aureobasidium pullulans = experiment: as above; settings: Table 1, 28° C., 6-7 days
Description: as §1, §2, §3, §4, §5

Pseudomonas fluorescens [2] = experiment: as above; settings: Table 1, 28° C., 3 days
Description: as §1, §2, §3, §4, §5

[3] = system: Trichophyton mentagrophytes; experiment: as above; settings: Table 1, 28° C., 6-7 days
Description: as §1, §2, §3, §4, §5

Penicillin pinophilium = experiment: as above; settings: Table 1, 28° C., 6-7 days
Description: as §1, §2, §3, §4, §5

Aspergillus niger = experiment: as above; settings: Table 1, 28° C., 6-7 days
Description: as §1, §2, §3, §4, §5

Gliocladium virens = experiment: as above; settings: Table 1, 28° C., 6-7 days
Description: as §1, §2, §3, §4, §5

Pseudomonas Stutzeri = experiment: as above; settings: Table 1, 28° C., 3 days
Description: as §1, §2, §3, §4, §5

Citrobacter freundii = experiment: as above; settings: Table 1, 28° C., 3 days
Description: as §1, §2, §3, §4, §5

Pseudomonas aeruginosa [4] = experiment: as above; settings: Table 1, 28° C., 3 days
Description: as §1, §2, §3, §4, §5

Alcaligens faecalis = experiment: as above; settings: Table 1, 28° C., 3 days
Description: as §1, §2, §3, §4, §5

Pseudomonas rubescens = experiment: as above; settings: Table 1, 28° C., 3 days
Description: as §1, §2, §3, §4, §5

Chaetomium globosium = experiment: as above; settings: Table 1, 28° C., 6-7 days
Description: as §1, §2, §3, §4, §5

Pseudomonas oleovorans = experiment: as above; settings: Table 1, 28° C., 3 days
Description: as §1, §2, §3, §4, §5

Cephalosporium sp. = experiment: as above; settings: Table 1, 28° C., 6-7 days
Description: as §1, §2, §3, §4, §5

Candida albicans [5] = experiment: as above; settings: Table 1, 28° C., 6-7 days
Description: as §1, §2, §3, §4, §5

Fusarium solani = experiment: as above; settings: Table 1, 28° C., 6-7 days
Description: as §1, §2, §3, §4, §5

Proteus mirabilis [6] = experiment: Checkerboard MIC Test in Tryptic Soy Broth; settings: 28° C., 3 days; for Minimum Inhibitory Concentration, Compound Used Alone: checkerboard, PE methanesulfonate, Na+, 14,310 units/mg
Description: as §1, §2, §4

Pseudomonas fluorescens [7] = experiment: Checkerboard MIC Test in Tryptic Soy Broth; settings: 28° C., 3 days; for Minimum Inhibitory Concentration, Compound Used Alone: checkerboard, PE methanesulfonate, Na+, 14,310 units/mg
Description: as §1, §2, §4

[8] = system: Trichophyton mentagrophytes; experiment: Checkerboard MIC Test in Tryptic Soy Broth; settings: 28° C., 5 days; for Minimum Inhibitory Concentration, Compound Used Alone: checkerboard, PE methanesulfonate, Na+, 14,310 units/mg
Description: as §1, §2, §4

Pseudomonas aeruginosa [9] = experiment: Checkerboard MIC Test in Tryptic Soy Broth; settings: 28° C., 3 days; for Minimum Inhibitory Concentration, Compound Used Alone: checkerboard, PE methanesulfonate, Na+, 14,310 units/mg
Description: as §1, §2, §4

Candida albicans [10] = experiment: Checkerboard MIC Test in Tryptic Soy Broth; settings: 28° C., 5 days; for Minimum Inhibitory Concentration, Compound Used Alone: checkerboard, PE methanesulfonate, Na+, 14,310 units/mg
Description: as §1, §2, §4

[11] = alone, Tryptic Soy Broth, PB sulfate 7610 units/mg
[12] = concentration of the component in SP+PB mixture, SP/PB ratio 1/20-1/10
[13] = concentration of the component in SP+PB mixture, SP/PB ratio 650
[14] = concentration of the component in SP+PB mixture, SP/PB ratio 1
[15] = Table 3, concentration of the component in SP+PE mixtures, SP/PE range 1/16-4
[16] = Table 3, concentration of the component in SP+PE mixtures, SP/PE range ≤1/128-8
[17] = Table 3, concentration of the component in SP+PE mixtures, SP/PE range 1/2-8
[18] = Table 3, concentration of the component in SP+PE mixtures, SP/PE range 4-16
[19] = Table 3, concentration of the component in SP+PE mixtures, SP/PE range 1/2048-1/4

[Na+].[O-][n+]1ccccc1[S-] [SP, sodium pyrithione]
Minimum Inhibitory Concentration, Compound Used Alone (Proteus mirabilis [1]; [11]): 325.1 ppm | Minimum Inhibitory Concentration, Mixture (Proteus mirabilis [1]; concentration of the component in SP+PB mixture, SP/PB ratio 1/20-1): 61.0 ppm | Minimum Inhibitory Concentration, Compound Used Alone (Aureobasidium pullulans; [11]): 15.2 ppm | Minimum Inhibitory Concentration, Mixture (Aureobasidium pullulans; [12]): 5.1 ppm | Minimum Inhibitory Concentration, Compound Used Alone (Pseudomonas fluorescens [2]; [11]): 135.5 ppm | Minimum Inhibitory Concentration, Mixture (Pseudomonas fluorescens [2]; concentration of the component in SP+PB mixture, SP/PB ratio 3-10): 6.7 ppm | Minimum Inhibitory Concentration, Compound Used Alone [3, 11]: 20.3 ppm | Minimum Inhibitory Concentration, Mixture ([3]; concentration of the component in SP+PB mixture, SP/PB ratio 1/10-1/3): 8.5 ppm | Minimum Inhibitory Concentration, Compound Used Alone (Penicillin pinophilium; [11]): 20.3 ppm | Minimum Inhibitory Concentration, Mixture (Penicillin pinophilium; [12]): 5.1 ppm | Minimum Inhibitory Concentration, Compound Used Alone (Aspergillus niger; [11]): 121.9 ppm | Minimum Inhibitory Concentration, Mixture (Aspergillus niger; concentration of the component in SP+PB mixture, SP/PB ratio 1/10): 40.6 ppm | Minimum Inhibitory Concentration, Compound Used Alone (Gliocladium virens; [11]): 108.3 ppm | Minimum Inhibitory Concentration, Mixture (Gliocladium virens; concentration of the component in SP+PB mixture, SP/PB ratio 1/10-1): 15.2 ppm | Minimum Inhibitory Concentration, Compound Used Alone (Pseudomonas Stutzeri; [11]): 81.3 ppm | Minimum Inhibitory Concentration, Mixture (Pseudomonas Stutzeri; concentration of the component in SP+PB mixture, SP/PB ratio 325-650): 40.6 ppm | Minimum Inhibitory Concentration, Compound Used Alone (Citrobacter freundii; [11]): 12.7 ppm | Minimum Inhibitory Concentration, Mixture (Citrobacter freundii; concentration of the component in SP+PB mixture, SP/PB ratio 41-81): 6.7 ppm | Minimum Inhibitory Concentration, Compound Used Alone (Pseudomonas aeruginosa [4]; [11]): 162.6 ppm | Minimum Inhibitory Concentration, Mixture (Pseudomonas aeruginosa [4]; concentration of the component in SP+PB mixture, SP/PB ratio 163-325): 81.3 ppm | Minimum Inhibitory Concentration, Compound Used Alone (Alcaligens faecalis; [11]): 30.5 ppm | Minimum Inhibitory Concentration, Mixture (Alcaligens faecalis; concentration of the component in SP+PB mixture, SP/PB ratio 5-41): 9.3 ppm | Minimum Inhibitory Concentration, Compound Used Alone (Pseudomonas rubescens; [11]): 23.7 ppm | Minimum Inhibitory Concentration, Mixture (Pseudomonas rubescens; [13]): 2.5 ppm | Minimum Inhibitory Concentration, Compound Used Alone (Chaetomium globosium; [11]): 12.7 ppm | Minimum Inhibitory Concentration, Mixture (Chaetomium globosium; concentration of the component in SP+PB mixture, SP/PB ratio 1/10-1/5): 3.8 ppm | Minimum Inhibitory Concentration, Compound Used Alone (Pseudomonas oleovorans; [11]): 12.7 ppm | Minimum Inhibitory Concentration, Mixture (Pseudomonas oleovorans; [13]): 3.2 ppm | Minimum Inhibitory Concentration, Compound Used Alone (Cephalosporium sp.; [11]): 50.8 ppm | Minimum Inhibitory Concentration, Mixture (Cephalosporium sp.; [14]): 15.2 ppm | Minimum Inhibitory Concentration, Compound Used Alone (Candida albicans [5]; [11]): 33.9 ppm | Minimum Inhibitory Concentration, Mixture (Candida albicans [5]; [12]): 6.7 ppm | Minimum Inhibitory Concentration, Compound Used Alone (Fusarium solani; [11]): 243.8 ppm | Minimum Inhibitory Concentration, Mixture (Fusarium solani; [14]): 40.6 ppm | Minimum Inhibitory Concentration, Compound Used Alone (Proteus mirabilis [6]; Table 3): 512 ppm | Minimum Inhibitory Concentration, Mixture Range (Proteus mirabilis [6]; [15]): 256 ppm | Minimum Inhibitory Concentration, Compound Used Alone (Pseudomonas fluorescens [7]; Table 3): 128 ppm | Minimum Inhibitory Concentration, Mixture Range (Pseudomonas fluorescens [7]; [16]): ≤1-32 ppm | Minimum Inhibitory Concentration, Compound Used Alone ([8]; Table 3): 32 ppm | Minimum Inhibitory Concentration, Mixture Range [8, 17]: 16-32 ppm | Minimum Inhibitory Concentration, Compound Used Alone (Pseudomonas aeruginosa [9]; Table 3): 128 ppm | Minimum Inhibitory Concentration, Mixture Range (Pseudomonas aeruginosa [9]; [18]): 32-64 ppm | Minimum Inhibitory Concentration, Compound Used Alone (Candida albicans [10]; Table 3): 32 ppm | Minimum Inhibitory Concentration, Mixture Range (Candida albicans [10]; [19]): 1-16 ppm

Polymyxin E methanesulfonate [PE]
Minimum Inhibitory Concentration, Compound Used Alone (Proteus mirabilis [6]; Table 3): > 16,400 ppm | Minimum Inhibitory Concentration, Mixture Range (Proteus mirabilis [6]; [15]): 64-4096 ppm | Minimum Inhibitory Concentration, Compound Used Alone (Proteus mirabilis [6]; Table 4): > 16,400 ppm | Minimum Inhibitory Concentration, Mixture Range (Proteus mirabilis [6]; Table 4, concentration of the component in ZP+PE mixtures, ZP/PE range 1/1024): 4096 ppm | Minimum Inhibitory Concentration, Compound Used Alone (Pseudomonas fluorescens [7]; Table 3): 256 ppm | Minimum Inhibitory Concentration, Mixture Range (Pseudomonas fluorescens [7]; [16]): 4-128 ppm | Minimum Inhibitory Concentration, Compound Used Alone (Pseudomonas fluorescens [7]; Table 4): 256 ppm | Minimum Inhibitory Concentration, Mixture Range (Pseudomonas fluorescens [7]; Table 4, concentration of the component in ZP+PE mixtures, ZP/PE range ≤1/128-4): 4-128 ppm | Minimum Inhibitory Concentration, Compound Used Alone ([8]; Table 3): 64 ppm | Minimum Inhibitory Concentration, Mixture Range [8, 17]: 4-32 ppm | Minimum Inhibitory Concentration, Compound Used Alone ([8]; Table 4): 64 ppm | Minimum Inhibitory Concentration, Mixture Range ([8]; Table 4, concentration of the component in ZP+PE mixtures, ZP/PE range 1/4-4): 4-32 ppm | Minimum Inhibitory Concentration, Compound Used Alone (Pseudomonas aeruginosa [9]; Table 3): 16 ppm | Minimum Inhibitory Concentration, Mixture Range (Pseudomonas aeruginosa [9]; [18]): 4-8 ppm | Minimum Inhibitory Concentration, Compound Used Alone (Pseudomonas aeruginosa [9]; Table 4): 16 ppm | Minimum Inhibitory Concentration, Mixture Range (Pseudomonas aeruginosa [9]; Table 4, concentration of the component in ZP+PE mixtures, ZP/PE range 2-8): 4-8 ppm | Minimum Inhibitory Concentration, Compound Used Alone (Candida albicans [10]; Table 3): > 8200 ppm | Minimum Inhibitory Concentration, Mixture Range (Candida albicans [10]; [19]): 64-2048 ppm | Minimum Inhibitory Concentration, Compound Used Alone (Candida albicans [10]; Table 4): > 8200 ppm | Minimum Inhibitory Concentration, Mixture Range (Candida albicans [10]; Table 4, concentration of the component in ZP+PE mixtures, ZP/PE range 1/2048-1/4): 32-2048 ppm

Reference: US5696083A, “Personal care composition containing pyrithione and polymyxin” (Olin Corporation, priority 1994, dated 1997)
